In BindingDB's records for PubMed 10215672 (Taisho Pharmaceutical, 1999):
“And” between values parts separate entries of the source, which are not always exact repeats. Equal values may be shown once.

Key:
[1] = biological target: Corticotropin-releasing factor receptor 2 (Rattus norvegicus, UniProt P47866)
[2] = biological target: T1, Corticotropin-releasing factor receptor 1 (Rattus norvegicus, UniProt P35353)
T1 sequence (P35353 whole entry): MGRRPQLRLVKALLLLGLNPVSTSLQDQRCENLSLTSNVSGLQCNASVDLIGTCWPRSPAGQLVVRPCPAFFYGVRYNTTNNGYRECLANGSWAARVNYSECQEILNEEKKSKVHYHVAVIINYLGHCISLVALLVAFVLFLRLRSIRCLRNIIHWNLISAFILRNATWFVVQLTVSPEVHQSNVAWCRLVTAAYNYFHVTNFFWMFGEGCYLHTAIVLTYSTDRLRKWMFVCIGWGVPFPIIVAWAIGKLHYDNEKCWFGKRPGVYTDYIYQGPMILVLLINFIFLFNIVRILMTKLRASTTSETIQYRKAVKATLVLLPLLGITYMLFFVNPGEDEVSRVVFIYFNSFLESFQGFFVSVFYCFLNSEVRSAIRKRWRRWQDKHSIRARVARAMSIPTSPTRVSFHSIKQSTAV

Chain of Corticotropin-releasing factor receptor 2 (P47866 whole entry): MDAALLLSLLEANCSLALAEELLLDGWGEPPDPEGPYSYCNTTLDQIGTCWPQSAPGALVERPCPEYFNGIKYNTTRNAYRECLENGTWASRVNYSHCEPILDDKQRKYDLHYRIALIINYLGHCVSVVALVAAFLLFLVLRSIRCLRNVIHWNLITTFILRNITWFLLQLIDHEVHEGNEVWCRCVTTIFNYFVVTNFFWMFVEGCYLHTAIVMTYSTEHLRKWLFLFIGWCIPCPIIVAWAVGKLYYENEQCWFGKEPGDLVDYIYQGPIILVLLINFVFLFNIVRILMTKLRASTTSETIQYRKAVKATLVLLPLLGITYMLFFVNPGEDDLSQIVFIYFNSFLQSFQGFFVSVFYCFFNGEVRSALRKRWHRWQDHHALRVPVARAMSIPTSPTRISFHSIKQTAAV

Row | Ki [1] | Ki [2] | Compound
1 | > 10000 nM | 22.3 nM and 18.6 nM | CCN(c1nc(C)cc(N2CCC=C(c3cccc(F)c3)C2)n1)c1ccc(CC(C)C)cc1Br [CRA1001]
2 | > 10000 nM | 14.8 nM and 20.7 nM | COCCN(CCOC)c1nc(C)nc2c1nnn2-c1ccc(C(C)C)cc1Br
3 | > 10000 nM | 1.8 nM | CCCCN(CC)c1nc(C)nc2c1c(C)cn2-c1c(C)cc(C)cc1C
